Where “and” joins values, the source holds several entries; their conditions need not be identical. Equal entries are not always repeated.
Assays:
Experiment in all cases: NCI one-dose screen
Format in all cases: cell-based, human
OVCAR-3 = settings: Ovarian OVCAR-3, 10 µM single dose
Description: (§1) All of the synthesised structures were selected and submitted to NCI based on computer modelling techniques and the degree of diversity of structures for the evaluation of their antiproliferative activity. The 20 synthesised compounds were selected with their respective NCI codes [NCS D-820157- NCS D-820176] for the inhibition percent assay at an initial single dose of 10 μM on the full NCI 60 cell panel, where the mean graph of the percent growth for all compounds on the full NCI cell panel is evaluated, compared to the untreated control cells (Supplementary Material). In vitro cell line inhibition % of all synthesised compounds is represented in (Table 1 of Supplementary Material).
(§2) All of the synthesised compounds (20) were submitted to NCI and selected for in vitro anticancer assay against a panel of 60 cancer cell lines. The methodology of assay and calculations is as reported.

K-562 = settings: Leukemia K-562, 10 µM single dose
Description: as §1, §2

HOP-92 = settings: NSCLC HOP-92, 10 µM single dose
Description: as §1, §2

BT-549 = settings: Breast BT-549, 10 µM single dose
Description: as §1, §2

OVCAR-8 = settings: Ovarian OVCAR-8, 10 µM single dose
Description: as §1, §2

MCF7 = settings: for Growth Percent: Breast MCF7, 10 µM single dose
Description: as §1, §2

TK-10 = settings: Renal TK-10, 10 µM single dose
Description: as §1, §2

OVCAR-5 = settings: Ovarian OVCAR-5, 10 µM single dose
Description: as §1, §2

KM12 = settings: for Growth Percent: Colon KM12, 10 µM single dose
Description: as §1, §2

MDA-MB-435 = settings: Melanoma MDA-MB-435, 10 µM single dose
Description: as §1, §2

RPMI-8226 = settings: Leukemia RPMI-8226, 10 µM single dose
Description: as §1, §2

HCC-2998 = settings: Colon HCC-2998, 10 µM single dose
Description: as §1, §2

SF-268 = settings: for Growth Percent: CNS SF-268, 10 µM single dose
Description: as §1, §2

ACHN = settings: Renal ACHN, 10 µM single dose
Description: as §1, §2

UACC-257 = settings: Melanoma UACC-257, 10 µM single dose
Description: as §1, §2

T-47D = settings: Breast T-47D, 10 µM single dose
Description: as §1, §2

SK-MEL-28 = settings: Melanoma SK-MEL-28, 10 µM single dose
Description: as §1, §2

NCI-H522 = settings: for Growth Percent: NSCLC NCI-H522, 10 µM single dose
Description: as §1, §2

SF-295 = settings: CNS SF-295, 10 µM single dose
Description: as §1, §2

COLO 205 = settings: Colon COLO 205, 10 µM single dose
Description: as §1, §2

PC-3 = settings: Prostate PC-3, 10 µM single dose
Description: as §1, §2

NCI-H460 = settings: NSCLC NCI-H460, 10 µM single dose
Description: as §1, §2

SF-539 = settings: for Growth Percent: CNS SF-539, 10 µM single dose
Description: as §1, §2

786-0 = settings: Renal 786-0, 10 µM single dose
Description: as §1, §2

HL-60(TB) = settings: Leukemia HL-60(TB), 10 µM single dose
Description: as §1, §2

SNB-19 = settings: CNS SNB-19, 10 µM single dose
Description: as §1, §2

U251 = settings: for Growth Percent: CNS U251, 10 µM single dose
Description: as §1, §2

HCT-116 = settings: Colon HCT-116, 10 µM single dose
Description: as §1, §2

MALME-3M = settings: Melanoma MALME-3M, 10 µM single dose
Description: as §1, §2

LOX IMVI = settings: Melanoma LOX IMVI, 10 µM single dose
Description: as §1, §2

SK-OV-3 = settings: Ovarian SK-OV-3, 10 µM single dose
Description: as §1, §2

SN12C = settings: Renal SN12C, 10 µM single dose
Description: as §1, §2

CAKI-1 = settings: Renal CAKI-1, 10 µM single dose
Description: as §1, §2

NCI-H322M = settings: NSCLC NCI-H322M, 10 µM single dose
Description: as §1, §2

MDA-MB-231/ATCC = settings: Breast MDA-MB-231/ATCC, 10 µM single dose
Description: as §1, §2

SR = settings: Leukemia SR, 10 µM single dose
Description: as §1, §2

NCI-H23 = settings: for Growth Percent: NSCLC NCI-H23, 10 µM single dose
Description: as §1, §2

Cc1c(C(=O)NO)sc2ncnc(Nc3ccc(NC(=O)Nc4cccc(C(F)(F)F)c4)cc3)c12 [Compound 7c, 1–(4-(6-(hydroxycarbamoyl)-5-methylthieno[2,3-d]pyrimidin-4-ylamino)phenyl)-3–(3-(trifluoromethyl)phenyl)urea]
Growth Percent (OVCAR-3): 104.2% and 104.27% | Growth Percent (K-562): 91.7% and 91.72% | Growth Percent (HOP-92): 119.3% and 119.39% | Growth Percent (BT-549): 115.1% and 115.17% | Growth Percent (OVCAR-8): 100.4% and 100.41% | Growth Percent (MCF7): 88.4% and 88.42% | inhibition at 10 µM (MCF7; Homo sapiens, breast MCF7, 10 μM): 11.6% | Growth Percent (TK-10): 116.24% | Growth Percent (OVCAR-5): 114.3% and 114.33% | Growth Percent (KM12): 66.3% and 66.34% | inhibition at 10 µM (KM12; Homo sapiens, colon KM12, 10 μM): 33.7% | Growth Percent (MDA-MB-435): 100.6% and 100.67% | Growth Percent (RPMI-8226): 93.27% | Growth Percent (HCC-2998): 112.6% and 112.66% | Growth Percent (SF-268): 89.2% | inhibition at 10 µM (SF-268; Homo sapiens, CNS SF-268, 10 μM): 10.8% | Growth Percent (ACHN): 94.84% | Growth Percent (UACC-257): 106.3% and 106.33% | Growth Percent (T-47D): 96.3% and 96.39% | Growth Percent (SK-MEL-28): 108.2% and 108.23% | inhibition at 10 µM (NCI-H522; Homo sapiens, NSCLC NCI-H522, 10 μM): 11.7% | Growth Percent (NCI-H522): 88.3% and 88.38% | Growth Percent (SF-295): 95.1% and 95.16% | Growth Percent (COLO 205): 103.3% and 103.35% | Growth Percent (PC-3): 91.1% and 91.19% | Growth Percent (NCI-H460): 101.7% and 101.73% | Growth Percent (SF-539): 61.4% and 61.49% | inhibition at 10 µM (SF-539; Homo sapiens, CNS SF-539, 10 μM): 38.6% | Growth Percent (786-0): 108.4% and 108.43% | Growth Percent (HL-60(TB)): 102.0% and 102.08% | Growth Percent (SNB-19): 90.8% and 90.81% | Growth Percent (U251): 73.1% and 73.13% | inhibition at 10 µM (U251; Homo sapiens, U-251, CNS U251, 10 μM): 26.9% | Growth Percent (HCT-116): 97.9% and 97.94% | Growth Percent (MALME-3M): 105.0% and 105.06% | Growth Percent (LOX IMVI): 90.9% and 90.99% | Growth Percent (SK-OV-3): 113.0% and 113.07% | Growth Percent (SN12C): 97.89% | Growth Percent (CAKI-1): 90.57% | Growth Percent (NCI-H322M): 99.6% and 99.69% | Growth Percent (MDA-MB-231/ATCC): 95.2% and 95.26% | Growth Percent (SR): 94.0% and 94.07% | inhibition at 10 µM (NCI-H23; Homo sapiens, NSCLC NCI-H23, 10 μM): 11.1% | Growth Percent (NCI-H23): 88.9% and 88.92%

COc1cccc(NC(=O)Nc2ccc(Nc3ncnc4sc(C(=O)NO)c(C)c34)cc2)c1 [Compound 7b, 1–(4-(6-(hydroxycarbamoyl)-5-methylthieno[2,3-d]pyrimidin-4-ylamino)phenyl)-3–(3-methoxyphenyl)urea]
Growth Percent (OVCAR-3): 106.5% and 106.55% | Growth Percent (K-562): 108.5% and 108.57% | Growth Percent (HOP-92): 108.4% and 108.42% | Growth Percent (BT-549): 99.5% and 99.56% | Growth Percent (OVCAR-8): 96.6% and 96.69% | Growth Percent (MCF7): 95.2% and 95.27% | Growth Percent (TK-10): 103.9% and 103.96% | Growth Percent (OVCAR-5): 102.8% and 102.86% | Growth Percent (KM12): 102.7% and 102.79% | Growth Percent (MDA-MB-435): 101.5% and 101.59% | Growth Percent (RPMI-8226): 110.6% and 110.62% | Growth Percent (HCC-2998): 103.6% and 103.61% | Growth Percent (SF-268): 93.3% and 93.33% | Growth Percent (ACHN): 103.7% and 103.71% | Growth Percent (UACC-257): 100.8% and 100.87% | Growth Percent (T-47D): 99.6% and 99.67% | Growth Percent (SK-MEL-28): 111.1% and 111.16% | Growth Percent (NCI-H522): 90.2% and 90.28% | Growth Percent (SF-295): 94.5% and 94.51% | Growth Percent (COLO 205): 114.4% and 114.44% | Growth Percent (PC-3): 101.6% and 101.65% | Growth Percent (NCI-H460): 100.7% and 100.73% | Growth Percent (SF-539): 97.2% and 97.26% | Growth Percent (786-0): 100.6% and 100.62% | Growth Percent (HL-60(TB)): 103.1% and 103.15% | Growth Percent (SNB-19): 100.1% and 100.14% | Growth Percent (U251): 101.4% and 101.41% | Growth Percent (HCT-116): 102.7% and 102.72% | Growth Percent (MALME-3M): 101.9% and 101.92% | Growth Percent (LOX IMVI): 94.1% and 94.14% | Growth Percent (SK-OV-3): 128.5% and 128.59% | Growth Percent (SN12C): 99.1% and 99.12% | Growth Percent (CAKI-1): 99.4% and 99.45% | Growth Percent (NCI-H322M): 103.7% | Growth Percent (MDA-MB-231/ATCC): 99.5% and 99.59% | Growth Percent (SR): 115.8% and 115.82% | Growth Percent (NCI-H23): 98.8% and 98.89%

Cc1c(C(=O)NCCCC(=O)NO)sc2ncnc(Nc3ccc(Cl)cc3)c12 [Compound 20c, 4–(4-chlorophenylamino)-N-(4-(hydroxyamino)-4-oxobutyl)-5-methylthieno[2,3-d]pyrimidine-6-carboxamide]
Growth Percent (OVCAR-3): 106.5% and 106.57% | Growth Percent (K-562): 108.0% | Growth Percent (HOP-92): 111.8% and 111.83% | Growth Percent (BT-549): 116.5% | Growth Percent (OVCAR-8): 105.5% | Growth Percent (MCF7): 91.4% and 91.44% | Growth Percent (TK-10): 152.2% and 152.23% | Growth Percent (OVCAR-5): 109.8% and 109.86% | Growth Percent (KM12): 101.7% and 101.78% | Growth Percent (MDA-MB-435): 103.8% and 103.83% | Growth Percent (RPMI-8226): 103.6% and 103.64% | Growth Percent (HCC-2998): 102.4% and 102.48% | Growth Percent (SF-268): 97.2% and 97.29% | Growth Percent (ACHN): 105.1% and 105.18% | Growth Percent (UACC-257): 112.8% and 112.86% | Growth Percent (T-47D): 105.2% and 105.24% | Growth Percent (SK-MEL-28): 112.3% and 112.39% | Growth Percent (NCI-H522): 91.2% and 91.22% | Growth Percent (SF-295): 101.19% | Growth Percent (COLO 205): 117.8% and 117.81% | Growth Percent (PC-3): 101.4% and 101.49% | Growth Percent (NCI-H460): 101.9% and 101.95% | Growth Percent (SF-539): 95.3% and 95.36% | Growth Percent (786-0): 83.0% and 83.06% | Growth Percent (HL-60(TB)): 103.4% and 103.41% | Growth Percent (SNB-19): 99.1% and 99.11% | Growth Percent (U251): 103.1% and 103.12% | Growth Percent (HCT-116): 108.2% and 108.21% | Growth Percent (MALME-3M): 112.5% and 112.53% | Growth Percent (LOX IMVI): 99.2% and 99.24% | Growth Percent (SK-OV-3): 112.9% and 112.92% | Growth Percent (SN12C): 100.0% and 100.04% | Growth Percent (CAKI-1): 93.0% and 93.08% | Growth Percent (NCI-H322M): 101.3% and 101.35% | Growth Percent (MDA-MB-231/ATCC): 95.4% and 95.46% | Growth Percent (SR): 102.6% and 102.62% | Growth Percent (NCI-H23): 94.9% and 94.98%

Source: PMC8253220, “Molecular design, synthesis and in vitro biological evaluation of thienopyrimidine–hydroxamic acids as chimeric kinase HDAC inhibitors: a challenging approach to combat cancer” (Journal of Enzyme Inhibition and Medicinal Chemistry, 2021)
